≈ marks a conversion by molar mass, not a printed value. Counter-ions that a name gives are not always drawn. Like-named read-outs stand apart in the source and are kept apart here.
Experiments:
[1] = Ratio of dissolution to water (water solubility)
[2] = system: K.pneumoniae NCTC-9632; test: MIC by agar plate dilution method; type: cell-based
Description: (§1) In order to investigate the in vitro activity of the under-mentioned compounds against various bacteria, the minimal inhibitory concentration (MIC, µg/mℓ) values were determined by the agar plate dilution method (see Chemotherapy, 22, 1126-1128 (1974)]. The results are shown in Table 1.

[3] = system: P.aeruginosa E-2; test: MIC by agar plate dilution method; type: cell-based
Description: as §1

[4] = system: E.facalis ATCC-21212; test: MIC by agar plate dilution method; type: cell-based; conditions: in vitro
Description: as §1

[5] = system: P.mirabilis ATCC-29906; test: MIC by agar plate dilution method; type: cell-based
Description: as §1

[6] = system: M.morganii IID Kono; test: MIC by agar plate dilution method; type: cell-based; conditions: in vitro
Description: as §1

[7] = system: A.calcoaceticus Ac-54; test: MIC by agar plate dilution method; type: cell-based
Description: as §1

[8] = system: E.coli NIHJ JC-2; test: MIC by agar plate dilution method; type: cell-based
Description: as §1

[9] = system: S.aureus FDA209P; test: MIC by agar plate dilution method; type: cell-based; conditions: in vitro
Description: as §1

[10] = system: P.aeruginosa ATCC-10145; test: MIC by agar plate dilution method; type: cell-based
Description: as §1

[11] = system: S.marcoscons IFO-12648; test: MIC by agar plate dilution method; type: cell-based; conditions: in vitro
Description: as §1

[12] = physchem; conditions: water, Ratio of dissolution to water
[13] = Ratio of dissolution to water, at 20 °C
[14] = Klebsiella pneumoniae, NCTC9632, in vitro, read-out: MIC
[15] = Pseudomonas aeruginosa, E2, in vitro, read-out: MIC
[16] = Proteus mirabilis, ATCC29906, in vitro, read-out: MIC
[17] = Morganella morganii, read-out: MIC
[18] = Acinetobacter calcoaceticus, AC54, in vitro, read-out: MIC
[19] = Escherichia coli, NIHJJC2, in vitro, read-out: MIC
[20] = Staphylococcus aureus, FDA209P, read-out: MIC
[21] = Pseudomonas aeruginosa, ATCC10145, in vitro, read-out: MIC

Compound	MIC [2, 14] [µg/mL]	MIC [3, 15] [µg/mL]	MIC ([4]; read-out: MIC) [µg/mL]	MIC [5, 16] [µg/mL]	MIC [6, 17] [µg/mL]	MIC [7, 18] [µg/mL]	MIC [8, 19] [µg/mL]	MIC [9, 20] [µg/mL]	MIC [10, 21] [µg/mL]	MIC ([11]; read-out: MIC) [µg/mL]	also measured
CC1CN(c2c(F)cc3c(=O)c(C(=O)O)cn4c3c2CC4C)CCN1 (single isomer, unassigned; (+)) [Example 20, (+)-8-fluoro-2-methyl-9-(3-methyl-1-piperazinyl)-6-oxo-1,2-dihydro-6H-pyrrolo[3,2,1-ij]quinoline-5-carboxylic acid]											solubility [1, 13]: 143 mg/mL
CC1Cc2c(N3CCN(C)CC3)c(F)cc3c(=O)c(C(=O)O)cn1c23 (racemic) [Test Compound E, 8-fluoro-2-methyl-9-(4-methyl-1-piperazinyl)-6-oxo-1,2-dihydro-6H-pyrrolo[3,2,1-ij]quinoline-5-carboxylic acid, reference compound]	0.1 (≈ 0.29 µM)	1.56 (≈ 4.52 µM)	1.56 (≈ 4.52 µM)	0.39 (≈ 1.13 µM)	0.1 (≈ 0.29 µM)	0.2 (≈ 0.579 µM)	0.1 (≈ 0.29 µM)	0.2 (≈ 0.579 µM)	3.13 (≈ 9.06 µM)	0.1 (≈ 0.29 µM)	
CC1CN(c2c(Cl)cc3c(=O)c(C(=O)O)cn4c3c2CC4C)CCN1.Cl (single isomer, unassigned; (+)) [Example 11, (+)-8-chloro-2-methyl-9-(3-methyl-1-piperazinyl)-6-oxo-1,2-dihydro-6H-pyrrolo[3,2,1-ij]quinoline-5-carboxylic acid hydrochloride]	0.1	0.78	6.25	0.2	0.024	0.78	0.1	0.39	0.78	0.2	solubility [12]: 231 mg/mL
CC1CN(c2c(F)cc3c(=O)c(C(=O)O)cn4c3c2CC4C)CC(C)N1.Cl (single isomer, unassigned; (+)) [Example 12, (+)-8-fluoro-2-methyl-9-(3,5-dimethyl-1-piperazinyl)-6-oxo-1,2-dihydro-6H-pyrrolo[3,2,1-ij]quinoline-5-carboxylic acid hydrochloride]											solubility [1]: 175 mg/mL
CC1Cc2c(N3CCN(C)CC3)c(F)cc3c(=O)c(C(=O)O)cn1c23 (single isomer, unassigned; (-)) [Reference Example 1, (-)-8-fluoro-2-methyl-9-(4-methyl-1-piperazinyl)-6-oxo-1,2-dihydro-6H-pyrrolo[3,2,1-ij]quinoline-5-carboxylic acid, reference compound]											MIC ([2]; in vitro, listed as F): 0.78 µg/mL (≈ 2.26 µM); MIC ([3]; in vitro, listed as F): 12.5 µg/mL (≈ 36.2 µM); MIC ([4]; listed as F): 100 µg/mL (≈ 290 µM); MIC ([5]; in vitro, listed as F): 3.13 µg/mL (≈ 9.06 µM); MIC ([6]; listed as F): 0.78 µg/mL (≈ 2.26 µM); MIC ([7]; in vitro, listed as F): 3.13 µg/mL (≈ 9.06 µM); MIC ([8]; in vitro, listed as F): 0.78 µg/mL (≈ 2.26 µM); MIC ([9]; listed as F): 3.13 µg/mL (≈ 9.06 µM); MIC ([10]; in vitro, listed as F): 25 µg/mL (≈ 72.4 µM); MIC ([11]; listed as F): 0.78 µg/mL (≈ 2.26 µM)
CC1CN(c2c(F)cc3c(=O)c(C(=O)O)cn4c3c2CC4C)CCN1.Cl (single isomer, unassigned; (-)) [Reference Example 2, (-)-8-fluoro-2-methyl-9-(3-methyl-1-piperazinyl)-6-oxo-1,2-dihydro-6H-pyrrolo[3,2,1-ij]quinoline-5-carboxylic acid hydrochloride, reference compound]											Ratio of dissolution to water: 167 mg/mL
CC1Cc2c(N3CCN(C)CC3)c(F)cc3c(=O)c(C(=O)O)cn1c23.Cl (racemic) [Reference Example 3, (±)-8-fluoro-2-methyl-9-(4-methyl-1-piperazinyl)-6-oxo-1,2-dihydro-6H-pyrrolo[3,2,1-ij]quinoline-5-carboxylic acid hydrochloride, reference compound]											solubility [12]: 12 mg/mL
CC1COc2c(N3CCN(C)CC3)c(F)cc3c(=O)c(C(=O)O)cn1c23 (stereo not drawn) [Test Compound G, S-(-)-9-fluoro-3-methyl-10-(4-methyl-1-piperazinyl)-7-oxo-2,3-dihydro-7H-pyrido[1,2,3-de][1,4]benzoxazine-6-carboxylic acid, reference compound]	0.1 (≈ 0.277 µM)	1.5 (≈ 4.15 µM)	3.13 (≈ 8.66 µM)	0.39 (≈ 1.08 µM)	0.1 (≈ 0.277 µM)	0.39 (≈ 1.08 µM)	0.1 (≈ 0.277 µM)	0.2 (≈ 0.553 µM)	3.13 (≈ 8.66 µM)	0.2 (≈ 0.553 µM)	
CCNCC1CCN(c2c(F)cc3c(=O)c(C(=O)O)cn4c3c2CC4C)C1.Cl (single isomer, unassigned; (+)) [Example 18, (+)-8-fluoro-2-methyl-9-[3-(ethylaminomethyl)-1-pyrrolidinyl]-6-oxo-1,2-dihydro-6H-pyrrolo[3,2,1-ij]quinoline-5-carboxylic acid hydrochloride]											solubility [1]: 195 mg/mL
CC1CN(c2c(F)cc3c(=O)c(C(=O)O)cn4c3c2CC4C)CCN1.Cl (single isomer, unassigned; (+)) [Example 8, (+)-8-fluoro-2-methyl-9-(3-methyl-1-piperazinyl)-6-oxo-1,2-dihydro-6H-pyrrolo[3,2,1-ij]quinoline-5-carboxylic acid hydrochloride]	0.05	0.39	3.13	0.1	0.012	0.39	0.05	0.2	0.39	0.1	Ratio of dissolution to water: 385 mg/mL
CC(C)NCC1CCN(c2c(F)cc3c(=O)c(C(=O)O)cn4c3c2CC4C)C1 (single isomer, unassigned; (+)) [Example 19, (+)-8-fluoro-2-methyl-9-[3-(isopropylaminomethy 1-pyrrolidyl]-6-oxo-1,2-dihydro-6H-pyrrolo[3,2,1-ij]quinoline-5-carboxylic acid hydrochloride]											solubility [1, 13]: 135 mg/mL
CC1Cc2c(N3CCC(N)C3)c(F)cc3c(=O)c(C(=O)O)cn1c23.Cl (single isomer, unassigned; (+)) [Example 17 hydrochloride, (+)-8-fluoro-2-methyl-9-(3-amino-1-pyrrolidyl)-6-oxo-1,2-dihydro-6H-pyrrolo[3,2,1-ij]quinoline-5-carboxylic acid hydrochloride]											solubility [12]: 158 mg/mL
CC1CN(c2c(F)cc3c(=O)c(C(=O)O)cn4c3c2CC4C)CCN1.Cl (racemic) [Example 10, (±)-8-fluoro-2-methyl-9-(3-methyl-1-piperazinyl)-6-oxo-1,2-dihydro-6H-pyrrolo[3,2,1-ij]quinoline-5-carboxylic acid hydrochloride]											solubility [12]: 152 mg/mL
CC1Cc2c(N3CCC(N)C3)c(F)cc3c(=O)c(C(=O)O)cn1c23 (single isomer, unassigned; (+)) [Example 17, (+)-8-fluoro-2-methyl-9-(3-amino-1-pyrrolidinyl)-6-oxo-1,2-dihydro-6H-pyrrolo[3,2,1-ij]quinoline-5-carboxylic acid]	0.05 (≈ 0.151 µM)	0.39 (≈ 1.18 µM)	3.13 (≈ 9.45 µM)	0.1 (≈ 0.302 µM)	0.024 (≈ 0.0724 µM)	0.39 (≈ 1.18 µM)	0.05 (≈ 0.151 µM)	0.2 (≈ 0.604 µM)	0.39 (≈ 1.18 µM)	0.1 (≈ 0.302 µM)	
CC1Cc2c(N3CCN(C)CC3)c(F)cc3c(=O)c(C(=O)O)cn1c23 (single isomer, unassigned; (+)) [Example 7, (+)-8-fluoro-2-methyl-9-(4-methyl-1-piperazinyl)-6-oxo-1,2-dihydro-6H-pyrrolo[3,2,1-ij]quinoline-5-carboxylic acid]											MIC ([2]; in vitro, listed as A): 0.05 µg/mL (≈ 0.145 µM); MIC ([3]; in vitro, listed as A): 0.78 µg/mL (≈ 2.26 µM); MIC ([4]; listed as A): 0.78 µg/mL (≈ 2.26 µM); MIC ([5]; in vitro, listed as A): 0.2 µg/mL (≈ 0.579 µM); MIC ([6]; listed as A): 0.05 µg/mL (≈ 0.145 µM); MIC ([7]; in vitro, listed as A): 0.1 µg/mL (≈ 0.29 µM); MIC ([8]; in vitro, listed as A): 0.05 µg/mL (≈ 0.145 µM); MIC ([9]; listed as A): 0.1 µg/mL (≈ 0.29 µM); MIC ([10]; in vitro, listed as A): 1.56 µg/mL (≈ 4.52 µM); MIC ([11]; listed as A): 0.05 µg/mL (≈ 0.145 µM)
CC1Cc2c(N3CCN(C)CC3)c(F)cc3c(=O)c(C(=O)O)cn1c23 (single isomer, unassigned) [Example 7 hydrochloride]											solubility [1, 13]: 230 mg/mL

Reference: patent EP0390135A1, “Pyrroloquinoline derivatives, antimicrobial agents using the same and process for preparing the same” (OTSUKA PHARMACEUTICAL CO., LTD., priority 1989, dated 1990)
